# Legend:
# Type in all cases: cell-based
# [1] = target: T1, EGFR L858R (BaF3-L858R cells) (Homo sapiens, UniProt P00533, L858R); assay: Cell degradation of EGFR, HTRF assay, BaF3-L858R cells; conditions: 16 h treatment; for DC50: EGFR degradation; for Dmax: maximum percentage of degradation
# T1 construct: host or cells: BaF3
# Summary of the method: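 BaF3-L858R cells treated 16 h at 37° C, 5% CO2 with compound (top 10 uM final, 5-fold, 8 doses, 0.1% DMSO). DC50 from four-parameter fit; Dmax is maximum percent degradation.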
# [2] = target: T2, EGFR-L858R/C797S (H1975-clone #8 cells) (Homo sapiens, UniProt P00533, C797S/L858R); assay: Cell degradation of EGFR, HTRF assay, H1975-clone#8 (L858R/C797S) cells; conditions: 16 h treatment; for DC50: EGFR degradation; for Dmax: maximum percentage of degradation
# T2 construct: expressed in transfected cells; host or cells: H1975 (endogenous EGFR knocked out, clone #8)
# [3] = target: T3, p-EGFR L858R (BaF3-L858R cells) (Homo sapiens, UniProt P00533, L858R); assay: Cell p-EGFR inhibition assay, HTRF, BaF3-L858R cells; conditions: 16 h treatment; for Imax (%): maximum percentage of pEGFR inhibition; for IC50: pEGFR inhibition
# T3 construct: host or cells: BaF3
# Summary of the method: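 BaF3-L858R cells treated 16 h at 37 °C, 5% CO2 with compound from 10 uM top, 5-fold dilutions, 8 doses, in 0.1% DMSO medium. Lysates read overnight by HTRF p-EGFR antibodies; IC50 fitted to four-parameter curve against DMSO high control.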
# [4] = target: p-EGFR Del19/C797S (H1975-clone #23 cells) (Homo sapiens, UniProt P00533); assay: Cell p-EGFR inhibition assay, HTRF, H1975-clone#23 (DEL19/C797S) cells; conditions: 16 h treatment; for Imax (%): maximum percentage of pEGFR inhibition; for IC50: pEGFR inhibition
# Summary of the method: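 Phospho-EGFR read by overnight HTRF on lysates, normalized to DMSO-treated high control; IC50, Hill slope and Imax fitted. Compounds were applied for 16 h (10 uM top, 5-fold steps, 8 doses) to an H1975 single clone carrying only exogenous Del19/C797S EGFR after sgRNA knockout of endogenous copies.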
Structure (SMILES),DC50 [1] [nM],Dmax [1] [%],DC50 [2] [nM],Dmax [2] [%],Imax (%) [3] [%],IC50 [3] [nM],Imax (%) [4] [%],IC50 [4] [nM]
"Cc1cc2cc(n1)-c1c(C)nn(C)c1OC[C@H]1CC[C@H](C1)CN1/C(=N/C2=O)Nc2ccc(N3CCN(C4CCN(c5cc(F)c([C@H]6CCC(=O)NC6=O)c(F)c5)CC4)C(=O)C3)cc21 [Example 164, (R)-3-(2,6-difluoro-4-(4-(2-oxo-4-((7^1R,7^3S,E)-1^1,1^3,2^6-trimethyl-3-oxo-5^2,5^3-dihydro-1^1H,5^1H-9-oxa-4-aza-5(2,1)-benzo[d]imidazola-2(2,4)-pyridina-1(4,5)-pyrazola-7(1,3)-cyclopentanacyclononaphane-5^6-yl)piperazin-1-yl)piperidin-1-yl)phenyl)piperidine-2,6-dione]",2.79,92.7,1.19,88.7,94.91,1.85,96.95,0.254
"COC[C@H]1CN(c2cc3c(cc2F)N/C2=N\C(=O)c4cc(C)nc(c4)-c4c(C)nn(C)c4OC[C@H]4CC[C@H](C4)CN23)CCN1C1CCN(c2cc(F)c([C@H]3CCC(=O)NC3=O)c(F)c2)CC1 [Example 165, (R)-3-(2,6-difluoro-4-(4-((R)-4-((7^1R,7^3S,E)-5^5-fluoro-1^1,1^3,2^6-trimethyl-3-oxo-5^2,5^3-dihydro-1^1H,5^1H-9-oxa-4-aza-5(2,1)-benzo[d]imidazola-2(2,4)-pyridina-1(4,5)-pyrazola-7(1,3)-cyclopentanacyclononaphane-5^6-yl)-2-(methoxymethyl)piperazin-1-yl)piperidin-1-yl)phenyl)piperidine-2,6-dione]",3.32,91.1,4.45,88.7,93.3,4.83,94.62,1.34
"Cc1cc2cc(n1)-c1c(C)nn(C)c1OC[C@H]1CC[C@H](C1)CN1/C(=N/C2=O)Nc2ccc(N3CCC(C)(CN(C)C4CCN(c5cc(F)c([C@H]6CCC(=O)NC6=O)c(F)c5)CC4)CC3)cc21 [Example 168, (R)-3-(2,6-difluoro-4-(4-(methyl((4-methyl-1-((7^1R,7^3S,E)-1^1,1^3′2^6-trimethyl-3-oxo-5^2′5^3-dihydro-1^1H,5^1H-9-oxa-4-aza-5(2,1)-benzo[d]imidazola-2(2,4)-pyridina-1(4,5)-pyrazola-7(1,3)-cyclopentanacyclononaphane-5^6-yl)piperidin-4-yl)methyl)amino)piperidin-1-yl)phenyl)piperidine-2,6-dione]",2.96,80.9,3.07,81.1,100.64,8.76,102.22,2.56
"COC[C@@H]1CN(c2cc3c(cc2F)N/C2=N\C(=O)c4cc(C)nc(c4)-c4c(C)nn(C)c4OC[C@H]4CC[C@H](C4)CN23)CCN1C1CCN(c2cc(F)c([C@H]3CCC(=O)NC3=O)c(F)c2)CC1 [Example 169, (R)-3-(2,6-difluoro-4-(4-((S)-4-((7^1R,7^3S,E)-5^5-fluoro-1^1,1^3,2^6-trimethyl-3-oxo-5^2,5^3-dihydro-1^1H,5^1H-9-oxa-4-aza-5(2,1)-benzo[d]imidazola-2(2,4)-pyridina-1(4,5)-pyrazola-7(1,3)-cyclopentanacyclononaphane-5^6-yl)-2-(methoxymethyl)piperazin-1-yl)piperidin-1-yl)phenyl)piperidine-2,6-dione]",2.62,86.5,2.81,91.6,100.12,8.76,102.95,2.5
"COC[C@H]1CN(c2cc3c(cc2C)N/C2=N\C(=O)c4cc(C)nc(c4)-c4c(C)nn(C)c4OC[C@H]4CC[C@H](C4)CN23)CCN1C1CCN(c2cc(F)c([C@H]3CCC(=O)NC3=O)c(F)c2)CC1 [Example 172, (R)-3-(2,6-difluoro-4-(4-((R)-2-(methoxymethyl)-4-((7^1R,7^3S,E)-1^1,1^3,2^6° 5^5-tetramethyl-3-oxo-5^2,5^3-dihydro-1^1H,5^1H-9-oxa-4-aza-5(2,1)-benzo[d]imidazola-2(2,4)-pyridina-1(4,5)-pyrazola-7(1,3)-cyclopentanacyclononaphane-5^6-yl)piperazin-1-yl)piperidin-1-yl)phenyl)piperidine-2,6-dione]",5.09,84.8,0.909,85.6,100,6.2,103.44,2.74

# Now from value to compound:
DC50 [1] [nM],Dmax [1] [%],DC50 [2] [nM],Dmax [2] [%],Imax (%) [3] [%],IC50 [3] [nM],Imax (%) [4] [%],IC50 [4] [nM],Structure (SMILES)
4.4,88.1,2.97,82.5,94.53,2.24,96.05,0.6,"Cc1cc2cc(n1)-c1c(C)nn(C)c1OC[C@H]1CC[C@H](C1)CN1/C(=N/C2=O)Nc2ccc(N3CCN(C4CCN(c5cc(F)c([C@H]6CCC(=O)NC6=O)c(F)c5)CC4)[C@@H](CC#N)C3)cc21 [Example 163, 2-((S)-1-(1-(4-((R)-2,6-dioxopiperidin-3-yl)-3,5-difluorophenyl)piperidin-4-yl)-4-((7^1R,7^3S,E)-1^1,1^3,2^6-trimethyl-3-oxo-5^2,5^3-dihydro-1^1H,5^1H-9-oxa-4-aza-5(2,1)-benzo[d]imidazola-2(2,4)-pyridina-1(4,5)-pyrazola-7(1,3)-cyclopentanacyclononaphane-5^6-yl)piperazin-2-yl)acetonitrile]"
4.28,95.2,4.31,91.4,98.39,11.5,103.01,3.94,"COC[C@@H]1CN(c2cc3c(cc2C)N/C2=N\C(=O)c4cc(C)nc(c4)-c4c(C)nn(C)c4OC[C@H]4CC[C@H](C4)CN23)CCN1C1CCN(c2cc(F)c([C@H]3CCC(=O)NC3=O)c(F)c2)CC1 [Example 173, (R)-3-(2,6-difluoro-4-(4-((S)-2-(methoxymethyl)-4-((7^1R,7^3S,E)-1^1,1^3,2^6,5^5-tetramethyl-3-oxo-5^2,5^3-dihydro-1^1H,5^1H-9-oxa-4-aza-5(2,1)-benzo[d]imidazola-2(2,4)-pyridina-1(4,5)-pyrazola-7(1,3)-cyclopentanacyclononaphane-5^6-yl)piperazin-1-yl)piperidin-1-yl)phenyl)piperidine-2,6-dione]"
4.07,88.7,7.25,83.9,98.51,2.83,100.72,1.28,"CCc1nn(C)c2c1-c1cc(cc(C)n1)C(=O)/N=C1\Nc3ccc(N4CCN(C5CCN(c6cc(F)c([C@H]7CCC(=O)NC7=O)c(F)c6)CC5)[C@@H](COC)C4)cc3N1C[C@@H]1CC[C@H](CO2)C1 [Example 175, (R)-3-(4-(4-((R)-4-((7^1R,7^3S,E)-1^3-ethyl-1^1,2^6-dimethyl-3-oxo-5^2,5^3-dihydro-1^1H,5^1H-9-oxa-4-aza-5(2,1)-benzo[d]imidazola-2(2,4)-pyridina-1(4,5)-pyrazola-7(1,3)-cyclopentanacyclononaphane-5^6-yl)-2-(methoxymethyl)piperazin-1-yl)piperidin-1-yl)-2,6-difluorophenyl)piperidine-2,6-dione]"

# Source: patent US20240425523A1, “Compounds for the Degradation of EGFR Kinase” (Beigene Switzerland GMBH, priority 2023, published 2024)
